From patent US10278950B2, “Therapeutic agents containing cannabis flavonoid derivative for ocular disorders” (priority 2015, dated 2019)

What follows are molecules tested against T1, BIKE (BMP2K) kinase (Homo sapiens, UniProt Q9NSY1) (assay: Kinase inhibition assay (competition binding assay)). Details: qualitative statement; dose response curve only in FIG. 3, no values given.
T1 construct: made in house
T1 sequence (Q9NSY1 whole entry): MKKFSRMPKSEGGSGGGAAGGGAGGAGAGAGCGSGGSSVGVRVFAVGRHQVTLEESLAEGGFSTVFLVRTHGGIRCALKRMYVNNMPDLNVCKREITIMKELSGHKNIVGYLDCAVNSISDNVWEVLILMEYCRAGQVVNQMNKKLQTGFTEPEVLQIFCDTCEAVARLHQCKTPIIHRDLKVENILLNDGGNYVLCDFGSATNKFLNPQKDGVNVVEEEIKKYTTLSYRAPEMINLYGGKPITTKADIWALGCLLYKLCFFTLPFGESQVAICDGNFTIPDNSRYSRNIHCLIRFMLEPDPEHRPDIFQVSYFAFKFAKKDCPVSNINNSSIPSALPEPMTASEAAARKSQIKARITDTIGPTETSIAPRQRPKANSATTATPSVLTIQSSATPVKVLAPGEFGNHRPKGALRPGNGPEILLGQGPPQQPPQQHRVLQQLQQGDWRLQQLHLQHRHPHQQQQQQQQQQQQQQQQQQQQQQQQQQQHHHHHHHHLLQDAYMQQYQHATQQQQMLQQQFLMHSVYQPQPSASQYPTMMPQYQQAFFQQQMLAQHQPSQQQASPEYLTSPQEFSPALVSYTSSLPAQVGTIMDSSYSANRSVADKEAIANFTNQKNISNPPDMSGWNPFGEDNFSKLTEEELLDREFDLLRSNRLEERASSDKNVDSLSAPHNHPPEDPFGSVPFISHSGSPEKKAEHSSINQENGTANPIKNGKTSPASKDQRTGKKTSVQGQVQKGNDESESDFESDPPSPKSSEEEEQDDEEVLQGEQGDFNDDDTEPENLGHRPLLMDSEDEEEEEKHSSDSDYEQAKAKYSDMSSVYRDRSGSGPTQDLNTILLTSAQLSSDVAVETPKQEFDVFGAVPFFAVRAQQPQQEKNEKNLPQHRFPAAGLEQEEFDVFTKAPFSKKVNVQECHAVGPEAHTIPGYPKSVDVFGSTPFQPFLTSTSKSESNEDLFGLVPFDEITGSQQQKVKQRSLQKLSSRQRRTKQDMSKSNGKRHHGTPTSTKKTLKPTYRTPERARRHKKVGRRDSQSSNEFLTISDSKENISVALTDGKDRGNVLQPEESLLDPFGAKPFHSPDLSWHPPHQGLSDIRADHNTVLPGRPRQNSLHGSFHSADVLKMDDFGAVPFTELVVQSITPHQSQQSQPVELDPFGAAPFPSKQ
Description: Cannabis flavonoids and their analogs were subjected to kinase inhibition assay. The compounds were first screened at a single concentration of 10 μM in the primary assay. Compounds inhibiting at least 70% of specific kinases were subjected to further screening to determine kd values. To determine the kd values, competition binding assays were established, authenticated and executed as described previously (Fabian et al., 2005, Karaman et al., 2008). For most assays, kinases were fused to T7 phage strains (Fabian et al. 2005) and for the other assays, kinases were produced in HEK-293 cells after which they were tagged with DNA for quantitative PCR detection (data not shown). In general, full-length constructs were used for small, single domain kinases, and catalytic domain constructs for large multi-domain kinases. The binding assays utilized streptavidin-coated magnetic beads treated with biotinylated small molecule ligands for 30 minutes at room temperature which generated affinity resins for the kinase assays. The liganded beads were blocked with excess biotin and washed with blocking buffer (SeaBlock (Pierce), 1% BSA, 0.05% Tween 20, 1 mM DTT) to remove unbound ligand and to reduce non-specific phage binding. Binding reactions were assembled by combining kinases, liganded affinity beads, and test compounds in 1× binding buffer (20% SeaBlock, 0.17×PBS, 0.05% Tween 20, 6 mM DTT). Test compounds were prepared as 40× stocks in 100% DMSO and diluted directly into the assay (Final DMSO concentration=2.5%). All reactions were performed in polypropylene 384-well plates in a final volume of 0.04 ml. The assay plates were incubated at room temperature with shaking for 1 hour and the affinity beads were washed with wash buffer (1×PBS, 0.05% Tween 20). The beads were then re-suspended in elution buffer (1×PBS, 0.05% Tween 20, 0.5 μM non-biotinylated affinity ligand) and incubated at room temperature with shaking for 30 minutes. The kinase concentration in the eluates was measured by quantitative PCR. Kd values were determined using a standard dose response curve using the hill equation. Curves were fitted using a non-linear least square fit with the Levenberg-Marquardt algorithm.
In the case of COc1cc(-c2cc(=O)c3c(O)c(C/C=C(\C)CCC=C(C)C)c(O)cc3o2)ccc1O [cannflavin A], the “ability to inhibit the BMP2K kinase” value is reported as “demonstrated ability to inhibit”.
In the case of COc1cc(-c2cc(=O)c3c(O)c(CC=C(C)C)c(O)cc3o2)ccc1O [cannflavin B], the “ability to inhibit the BMP2K kinase” value is reported as “demonstrated ability to inhibit”.
In the case of COc1cc(-c2cc(=O)c3c(O)cc(O)c(C/C=C(\C)CCC=C(C)C)c3o2)ccc1O [cannflavin C], the “ability to inhibit the BMP2K kinase” value is reported as “demonstrated ability to inhibit”.
In the case of COc1cc(-c2cc(=O)c3c(O)cc(O)c(CC=C(C)C)c3o2)ccc1O [isocannflavin B], the “ability to inhibit the BMP2K kinase” value is reported as “demonstrated ability to inhibit”.
